Laboratory results taken from paper PMC11408123, “Deciphering the SAM- and metal-dependent mechanism of O-methyltransferases in cystargolide and belactosin biosynthesis: A structure–activity relationship study” (The Journal of Biological Chemistry, 2024).

What was measured:
BelI = target: T1, BelI (Streptomyces sp., UniProt A0A1W6R583); experiment: HPLC-MS turnover assay, semi-quantitative; assay type: biochemical; conditions: 1 mM substrate, 1 mM SAM, 5 μM enzyme, 20 mM Ca2+, 50 mM Tris-HCl, 30 °C, 3 h
T1 construct: full length, codon-optimised gene, N-terminal His6-SUMO tag removed, E. coli BL21(DE3); electron density for residues 17-228

CysG^ΔN16 [1] = target: T2, CysG^ΔN16 (Kitasatospora cystarginea, UniProt A0A1W6R556); experiment: HPLC-MS turnover assay, semi-quantitative; assay type: biochemical; conditions: 1 mM substrate, 1 mM SAM, 5 μM enzyme, 20 mM divalent metal ion, 50 mM Tris-HCl, 30 °C, 3 h
T2 construct: N-terminal truncation lacking the first 16 residues, His6-SUMO tag removed, E. coli BL21(DE3); electron density for residues 17-229

CysG^fl = target: T3, CysG^fl (Kitasatospora cystarginea, UniProt A0A1W6R556); experiment: HPLC-MS turnover assay, semi-quantitative; assay type: biochemical; conditions: 1 mM substrate, 1 mM SAM, 5 μM enzyme, 20 mM Ca2+, 50 mM Tris-HCl, 30 °C, 3 h
T3 construct: full length, codon-optimised gene, N-terminal His6-SUMO tag removed, E. coli BL21(DE3)

CysG^ΔN16 [2] = target: T2, CysG^ΔN16; experiment: X-ray crystal structure, […] Å; assay type: binding; conditions: with Ca2+ bound at His122-His123-Asp191; methyl donor site
CysG^ΔN16 [3] = target: T4, CysG^ΔN16 (Kitasatospora cystarginea, UniProt A0A1W6R556, R22K); experiment: X-ray crystal structure; assay type: binding; conditions: methyl donor site
T4 construct: N-terminal truncation lacking the first 16 residues, His6-SUMO tag removed, E. coli BL21(DE3); electron density for residues 17-229

CCC(C)C(C(=O)O)C(O)C(=O)O (centres unmarked) [3SBM]
HPLC-MS turnover assay, semi-quantitative (BelI): The assay was started by the addition of 3IPM for CysG and 3SBM for BelI

CC(C)[C@H](C(=O)O)[C@@H](O)C(=O)O [3IPM]
HPLC-MS turnover assay, semi-quantitative (CysG^ΔN16 [1]): N-terminally truncated CysG^ΔN16 variant was active with metal ions available
HPLC-MS turnover assay, semi-quantitative (CysG^fl): The assay was started by the addition of 3IPM for CysG and 3SBM for BelI

Nc1ncnc2c1ncn2[C@@H]1O[C@H](CSCC[C@H](N)C(=O)O)[C@@H](O)[C@H]1O [SAH]
X-ray crystal structure, 1.5 Å (CysG^ΔN16 [2]): crystal structures of CysG^ΔN16 in complex with S-adenosylhomocysteine (SAH)

C[S+](CC[C@H](N)C(=O)O)C[C@H]1O[C@@H](n2cnc3c(N)ncnc32)[C@H](O)[C@@H]1O (some centres unmarked) [SAM]
X-ray crystal structure (CysG^ΔN16 [3]): CysG^ΔN16-R22K variant (PDB ID: 9FCY) maintains SAM coordination
